What was measured:
tumor cells = settings: Non-Patent Literature 5; cited from earlier work
[1] = cited from earlier work
[2] = tested on: liver cancer (hepatocellular carcinoma) in female virus cirrhosis patients; test: Randomized clinical trial with 7-year follow-up: development of liver cancer in virus cirrhosis patients; format: in vivo, human; settings: for Adjusted odds ratio for development of HCC (treatment group to control group): multivariate analysis adjusted for age, ALT, albumin, total bilirubin, platelet count, AFP, history of IFN-α, 95% CI 0.016-0.992, P 0.0491; for Crude odds ratio for development of HCC (treatment group to control group): univariate analysis, 95% CI 0.042-0.913, P 0.038
Description: A primary test was conducted targeting 50 female virus cirrhosis patients.
The diagnosis of cirrhosis was based on histological examination of liver specimens obtained by laparoscopy or needle biopsy performed under ultrasonic guidance.
Half were randomly assigned to receive 45 mg/day of vitamin K2 (Glakay;
Eisai Co., Tokyo, Japan) p.o., and half were assigned to the control group. Randomization was performed by placing the treatment assignments in sealed envelopes.
At the end of the first study, 21 patients in the treatment group and 19 patients in the control group agreed to participate in a longer trial. These patients were infected with the hepatitis C virus except for one patient in each group that had hepatitis B.
The clinical trial was conducted in accordance with the Helsinki Declaration and was approved by our ethics committee.
Statistical analysis was carried out with SAS software (version 8.12). The χ2 test was used to assess the homogeneity of groups. Cumulative incidences were plotted by the Kaplan-Meier method, and statistical significance of differences was analyzed by the log-rank test. Cox's regression analysis was used for univariate and multivariate analysis. In both studies, the two groups were similar with respect to age, the Child-Pugh stage, and the other clinical findings (See Table 1).

leukemia cells = settings: in vitro, Patent Literature 1; cited from earlier work
[3] = tested on: liver cancer which has been treated; settings: Non-Patent Literature 6 and 7, cited from earlier work

CC(C)=CCC/C(C)=C/CC/C(C)=C/CC/C(C)=C/CO [geranylgeraniol]
induction of apoptosis (tumor cells): potent inducer of apoptosis in tumor cells

CC(C)=CCC/C(C)=C/CC/C(C)=C/CC/C(C)=C/CC1=C(C)C(=O)c2ccccc2C1=O [menatetrenone, 2-methyl-3-tetraprenyl-1,4-naphthoquinone]
solubility in water [1]: nearly insoluble in water | Adjusted odds ratio for development of HCC (treatment group to control group) ([2]; listed as VK2): 0.126 | Adjusted odds ratio for development of HCC (treatment group to control group) ([2]; listed as vitamin K2): 0.126 (0.016 to 0.992) | cumulative incidence percentage of liver cancer patients versus control group ([2]; treatment group, 45 mg/day p.o., 7-year follow-up, Kaplan-Meier (FIG. 1)): much smaller than that in the control group | patients who developed liver cancer ([2]; treatment group, 45 mg/day p.o., 7-year follow-up, control group 9 of 19): 2 of 21 | Crude odds ratio for development of HCC (treatment group to control group) ([2]; listed as VK2): 0.195 | Crude odds ratio for development of HCC (treatment group to control group) ([2]; listed as vitamin K2): 0.195 (from 0.042 to 0.913) | differentiation induction activity (leukemia cells): differentiation induction activity in leukemia cells | recurrence of treated liver cancer ([3]; patients who already had cancer): suppresses recurrence of liver cancer | survival percentage ([3]; patients with treated liver cancer): heightens the survival percentage
